Measurements taken from patent publication US9937194B1, “Compounds and methods for treating inflammatory diseases” (priority 2009, dated 2018).
Converted amounts (≈) assume the structure as drawn. “And” between values parts separate entries of the source, which are not always exact repeats. Equal values may be shown once.

What was measured:
[1] = test system: HDAC activity; assay: H2O2-induced reduction of HDAC activity in PMA-differentiated U937 cells; assay type: cell-based, human; conditions: for restoration of H2O2-reduced HDAC activity (%): test concentration not given, bracketed second value not explained
In short: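 U937 cells PMA-differentiated for 3 days, pretreated with compound for 20 min, then exposed to 200 μM H2O2 for 4 h with Fluor de Lys substrate present. Whole-cell HDAC activity measured fluorimetrically. Data expressed as fold change versus H2O2-only control, mean of four experiments ± SEM.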

[2] = test system: IL-8; assay: LPS-induced IL-8 release in PMA-differentiated U937 cells (ELISA); assay type: cell-based, human; conditions: for IL-8 inhibition (%): test concentration not given
In short: (§1)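 PMA-differentiated U937 macrophage-like cells were pretreated with compound for 1 hr, then stimulated with LPS (100 ng/ml) for 4 hrs. Released IL-8 and TNFα were quantified by sandwich ELISA. Values are means of three experiments ± SEM.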

[3] = test system: TNFα; assay: LPS-induced TNFα release in PMA-differentiated U937 cells (ELISA); assay type: cell-based, human; conditions: for TNFα inhibition (%): test concentration not given
In short: as §1

[4] = test system: MMP9; assay: PMA-induced MMP9 expression in U937 cells (gelatin zymography); assay type: cell-based, human; conditions: test concentration not given; bracketed second value not explained
[5] = assay type: cell-based; conditions: test concentration not given
[6] = test system: K. pneumonia 13883; assay: MIC; assay type: cell-based; conditions: in µg/mL
[7] = test system: E. coli ATCC 25922; assay: MIC; assay type: cell-based; conditions: in µg/mL
[8] = test system: S. typhimurium ATCC 14028; assay: MIC; assay type: cell-based; conditions: in µg/mL
[9] = test system: S. pneumoniae ATCC 49619; assay: MIC; assay type: cell-based
[10] = test system: S. aureus ATCC 29213 (MSSA) MLS-S; assay: MIC; assay type: cell-based
[11] = test system: P. aeruginosa ATCC 27853; assay: MIC; assay type: cell-based
[12] = test system: E. faecalis ATCC 29212; assay: MIC; assay type: cell-based
[13] = test system: H. influenzae ATCC 49247; assay: MIC; assay type: cell-based
[14] = test system: S. pyogenes ATCC 19615; assay: MIC; assay type: cell-based; conditions: in µg/mL
[15] = test system: N. gonorrhoeae ATCC 49226; assay: MIC; assay type: cell-based; parameters: unit not given beside the values
[16] = test system: HDAC2 mRNA; assay: Cigarette smoke extract-induced reduction of HDAC2 mRNA in A549 cells; assay type: cell-based, human; conditions: A549; CSE
Experimental: Preparations of cigarette smoke extract. To prepare the cigarette smoke extract, two full-strength Marlboro cigarettes (filters removed; Phillip Morris USA, Richmond, Va.) are combusted through a modified 60-ml syringe apparatus, and the smoke passed through 20 ml of DMEM medium. Each cigarette generally yields five draws of the syringe (to the 60-ml mark), with each individual draw taking approximately 10 s to complete. Cigarette smoke extract is then passed through a 0.20-μm filter to sterilize and remove particulate matter and is used immediately unless otherwise stated.
Quantitative RT-PCR. Total RNA extraction and reverse transcription are performed using an RNeasy kit (QIAGEN, Crawley, UK) and a High-Capacity cDNA Reverse Transcription Kits (Applied Biosystems, Foster City, Calif.). Gene transcript level of HDAC2 (HS00231032_M1, Applied Biosystems, California, USA) and the house-keeping gene, guanine nucleotide binding protein beta polypeptide-2-like 1 (GNB2L1) (HS00272002_M1, Applied Biosystems) are quantified by real-time PCR using a TaqMan® Gene Expression Master Mix (Applied Biosystems) on a Rotor-Gene 6000 (Corbett Research, Cambridge, UK). Transcripts are analysed by the delta (D) CT method and variations in cDNA concentrations between different samples were corrected using GNB2L1.
Effects of macrolides on cigarette smoke extract-induced (CSE-induced) reduction of HDAC2 mRNA in A549 cells. Cells pretreated with compounds described herein for 30 min are exposed to CSE (0.15 O.D.) for 1 hr. The cells are washed twice and incubated with medium only for 4 hrs. Data are expressed as % reduction from baseline (left) or % increase from baseline under H2O2. Values represent means of three experiments±SEM. Example 33 reverses cigarette smoke extract-induced (CSE-induced) reduction of HDAC2 mRNA expression in A549 cells at concentrations of about 10 μM or greater, and with statistical significance of p<0.05 versus treatment with CSE only (one-way ANOVA with post hoc test, n=3) at doses of about 30 μM or greater.

[17] = test system: Akt; assay: H2O2-induced phosphorylation of Akt in PMA-differentiated U937 cells (western blot); assay type: cell-based, human; conditions: PMA-differentiated U937; H2O2 1 mM 30 min
In short: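 PMA-differentiated U937 macrophage-like cells pretreated with compound 20 min, then stimulated with 1 mM H2O2 for 30 min. pAkt measured by western blot densitometry, normalised to total protein and expressed as fold change versus H2O2-only control; mean ± SEM of 3–4 experiments.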

[18] = test system: U937 cells; assay: H2O2-induced steroid insensitivity in U937 cells (dexamethasone IC50 on TNFα-induced IL-8); assay type: cell-based, human; conditions: highest concentration tested (100 μM); H2O2 200 μM
Experimental: Cytokine ELISA. LPS-induced IL-8, TNFα concentrations and TNFα-induced IL-8 concentrations are determined by sandwich ELISA according to the manufacturer's instructions (R&D Systems Europe). IC50 values for dexamethasone on IL-8 production are calculated using the computer program Prism 4.0 (GraphPad Software Inc., San Diego, Calif.) as a marker for steroid sensitivity.
Restoration of steroid sensitivity. U937 cells: U937 are treated with oxidative stress (H2O2, 200 μM or 0.15 dilution CSM (cigarette smoke conditioned medium)) and 4 hours later, stimulated with TNFα (10 ng/ml) in the presence of dexamethasone (10^−11-10^−6M). Supernatant and cells are collected 24 hrs after stimulation and IL-8 is measured by conventional ELISA. As the index of corticosteroid sensitivity, IC50 of dexamethasone is calculated. Test compounds are treated 20 min before oxidative stress treatment.
Effects of compounds on H2O2-induced steroid insensitivity in U937 cells. Cells stimulated with H2O2 (200 μM) overnight are incubated with compounds described herein for 30 min under H2O2 (200 μM) exposure. The cells are treated with dexamethasone (10^−11 to 10^−6 M) for 20 min, followed by the TNFα stimulation overnight. TNFα-induced IL-8 release is evaluated by ELISA and IC50 values for dexamethasone on IL-8 production are calculated using Prism. Data are expressed as fold changes against positive control treated with H2O2 only. Values represent means of four experiments±SEM. H2O2 exposure reduces dexamethasone sensitivity by approximately 4 fold based on calculated IC50 values of TNFα-induced IL-8 production.

[19] = test system: A/J mice exposed to LPS; assay: Anti-inflammatory activity in vivo: A/J mice exposed to LPS intranasally; conditions: intranasal, 1 hr before LPS challenge
[20] = test system: U937 cells; conditions: H2O2-induced insensitivity on TNF-α-induced IL-8 production; cited from earlier work
[21] = test system: PBMCs from COPD patients; conditions: PBMCs obtained from COPD patients; cited from earlier work
[22] = test system: MMP9; conditions: macrophages in sputum of COPD patients; cited from earlier work
[23] = test system: HDAC2; conditions: reduced by oxidative stress; cited from earlier work
[24] = test system: S. pneumoniae 163 (MefA); assay: MIC; assay type: cell-based; conditions: in µg/mL
[25] = test system: S. pneumoniae 3773 (ErmB); assay: MIC; assay type: cell-based
[26] = test system: S. pyogenes ATCC 1721; assay: MIC; assay type: cell-based
[27] = test system: S. pneumoniae 303 (ErmB); assay: MIC; assay type: cell-based

Compound: CCC1OC(=O)C(C)C(OC2OCC(O)C(NC)C2O)C(C)C(OC2OC(C)CC(N(C)C)C2O)C(C)(O)CC(C)CN(C(C)=O)C(C)C2OC(=O)OC12C (mixture of isomers) [Example 32]
- restoration of H2O2-reduced HDAC activity (%) [1]: 79 (65) %
- IL-8 inhibition (%) [2]: 55%
- TNFα inhibition (%) [3]: 73%
- MMP9 inhibition (%) [4]: 40 (49) %
- Cell Toxicity (% cell death) [5]: 11%
- MIC K. pneumonia 13883 [6]: >64
- MIC E. coli ATCC 25922 [7]: >64
- MIC S. typhimurium ATCC 14028 [8]: >64
- MIC S. pneumoniae ATCC 49619 [9]: 32 µg/mL
- MIC S. aureus ATCC 29213 (MSSA) MLS-S [10]: 32 µg/mL
- MIC P. aeruginosa ATCC 27853 [11]: > 64 µg/mL
- MIC E. faecalis ATCC 29212 [12]: 32 µg/mL

Compound: CCC1OC(=O)C(C)C(OC2OCC(O)C(N(C)C)C2O)C(C)C(OC2OC(C)CC(N(C)C)C2O)C(C)(O)CC(C)CN(C(C)=O)C(C)C2OC(=O)OC12C (mixture of isomers) [Example 40]
- restoration of H2O2-reduced HDAC activity (%) [1]: 26%
- IL-8 inhibition (%) [2]: 93%
- TNFα inhibition (%) [3]: 68%
- MMP9 inhibition (%) [4]: 60 (38) %
- Cell Toxicity (% cell death) [5]: 26%
- MIC K. pneumonia 13883 [6]: >64
- MIC E. coli ATCC 25922 [7]: >64
- MIC S. typhimurium ATCC 14028 [8]: >64
- MIC H. influenzae ATCC 49247 [13]: > 64 µg/mL
- MIC S. pneumoniae ATCC 49619 [9]: 64 µg/mL
- MIC S. aureus ATCC 29213 (MSSA) MLS-S [10]: 16 µg/mL
- MIC S. pyogenes ATCC 19615 [14]: >64
- MIC P. aeruginosa ATCC 27853 [11]: > 64 µg/mL
- MIC N. gonorrhoeae ATCC 49226 [15]: 8 and 16
- MIC E. faecalis ATCC 29212 [12]: 32 µg/mL

Compound: CC[C@H]1OC(=O)[C@H](C)[C@@H](O[C@H]2C[C@@](C)(OC)[C@@H](O)[C@H](C)O2)[C@H](C)[C@@H](O[C@@H]2O[C@H](C)C[C@H](N(C)C)[C@H]2O)[C@](C)(O)C[C@@H](C)C(=O)[C@H](C)[C@@H](O)[C@]1(C)O [ERY, erythromycin]
- restoration of HDAC activity compared with Example 33 ([1]; PMA-differentiated U937, H2O2 200 μM 4 hrs): only at much higher doses than Example 33
- HDAC activity reached compared with untreated controls ([1]; PMA-differentiated U937, H2O2 200 μM, comparators at highest doses tested): only restore HDAC activity to levels comparable to untreated controls
- reversal of HDAC mRNA expression reduction compared with Example 33 [16]: only at much higher doses than Example 33
- inhibition of Akt phosphorylation compared with Example 33 [17]: at comparable concentrations
- inhibition of LPS-induced IL-8 release compared with Example 33 ([2]; LPS 100 ng/ml 4 hrs): did not show any inhibition at any concentration tested
- inhibition of LPS-induced TNFα release compared with Example 33 ([3]; LPS 100 ng/ml 4 hrs): did not show any inhibition at any concentration tested
- restoration of dexamethasone sensitivity [18]: None of ERY, CLR, or AZI restored dexamethasone sensitivity
- anti-inflammatory action in LPS-exposed A/J mice [19]: have anti-inflammatory action
- restoration of corticosteroid sensitivity (reported) [20]: restore corticosteroid sensitivity
- restoration of corticosteroid sensitivity (reported) [21]: restore corticosteroid sensitivity
- MMP9 expression (reported) [22]: inhibited MMP9 expression
- HDAC2 promoter activity and protein expression (reported) [23]: restore HDAC2 promoter activity and protein expression

Compound: CC[C@H]1OC(=O)[C@H](C)C(=O)[C@H](C)[C@@H](O[C@@H]2O[C@H](COC(=O)c3ccccc3)[C@@H](N)[C@@H]2O)[C@@](C)(OC)C[C@@H](C)C(=O)[C@H](C)[C@H]2N(CCCCn3cc(-c4ccccn4)nn3)C(=O)O[C@]12C [Example 26]
- restoration of H2O2-reduced HDAC activity (%) [1]: 92%
- IL-8 inhibition (%) [2]: −51%
- TNFα inhibition (%) [3]: −25%
- MMP9 inhibition (%) [4]: 2%
- Cell Toxicity (% cell death) [5]: −2%
- MIC H. influenzae ATCC 49247 [13]: > 64 µg/mL
- MIC S. pneumoniae ATCC 49619 [9]: 32 µg/mL (≈ 35.9 µM)
- MIC S. pneumoniae 163 (MefA) [24]: 64
- MIC S. pneumoniae 3773 (ErmB) [25]: > 64 µg/mL
- MIC S. pyogenes ATCC 1721 [26]: > 64 µg/mL

Compound: CC[C@H]1OC(=O)[C@@](C)(F)C(=O)[C@H](C)[C@@H](O[C@@H]2O[C@H](C)[C@@H](OC(=O)Nc3ccccc3)[C@H](N(C)C)[C@H]2O)[C@@](C)(OC)C[C@@H](C)C(=O)[C@H](C)[C@H]2N(CCCCn3cc(-c4ccccn4)nn3)C(=O)O[C@]12C [Example 27]
- restoration of H2O2-reduced HDAC activity (%) [1]: 75%
- IL-8 inhibition (%) [2]: −43%
- TNFα inhibition (%) [3]: 34%
- MMP9 inhibition (%) [4]: 1%
- Cell Toxicity (% cell death) [5]: −7%
- MIC H. influenzae ATCC 49247 [13]: > 64 µg/mL
- MIC S. pneumoniae ATCC 49619 [9]: 32 µg/mL (≈ 33.1 µM)
- MIC S. pneumoniae 163 (MefA) [24]: 8
- MIC S. pneumoniae 303 (ErmB) [27]: > 64 µg/mL
- MIC S. pneumoniae 3773 (ErmB) [25]: > 64 µg/mL
- MIC S. pyogenes ATCC 1721 [26]: > 64 µg/mL
